Data taken from ChEMBL document CHEMBL1153975, “Structure-activity relationships of diverse annonaceous acetogenins against human tumor cells” (Bioorg Med Chem Lett, 2009).

Key:
Type in all cases: functional, cell-based
HeLa = experiment: Cytotoxicity against human HeLa cells after 72 hrs by MTT assay
SGC-7901 = experiment: Cytotoxicity against human SGC7901 cells after 72 hrs by MTT assay; conditions: SGC-7901, 72 h
MCF7 = experiment: Cytotoxicity against human MCF7 cells after 72 hrs by MTT assay; conditions: MCF7, 72 h
[1] = Cytotoxicity against human SMMC-7541 cells after 72 hrs by MTT assay
[2] = Cytotoxicity against human A-5408 cells after 72 hrs by MTT assay

| SMILES | IC50 (HeLa) [nM] | IC50 (SGC-7901) [nM] | IC50 (MCF7) [nM] | IC50 [1] [nM] | IC50 [2] [nM] |
| --- | --- | --- | --- | --- | --- |
| CCCCCCCCCC[C@H](O)[C@@H]1CC[C@@H]([C@H](O)CC[C@@H](O)[C@@H]2CC[C@@H](CCCCCCCCCC3=C[C@@H](C)OC3=O)O2)O1 [Squamostatin-D] | 38 | 180 | 45 | 54 | 1.4 |
| CCCCCCCCCC[C@@H](O)[C@H]1CC[C@H]([C@H]2CC[C@H]([C@H](O)CCCCCCCCCCCCC3=C[C@@H](C)OC3=O)O2)O1 [DEACETYLUVARICIN] | 160 | 43 | 40 | 140 | 400 |
| CCCCCC[C@@H](O)CCC[C@@H](O)[C@H]1CC[C@H]([C@H]2CC[C@H]([C@H](O)CCCCCCCCCCCCC3=C[C@@H](C)OC3=O)O2)O1 [Squamocin-D] | 24 | 1.6 | 2.8 | 12 | 1.8 |
| CCCCCCCCCC[C@@H](O)[C@@H]1CC[C@@H]([C@H](O)CC[C@@H](O)[C@@H]2CC[C@@H](CCCCCCCCCC3=C[C@@H](C)OC3=O)O2)O1 [Squamostatin-E] | 270 | 210 | 900 | 180 | 130 |
| CCCCCC[C@@H](O)CCC[C@@H](O)[C@@H]1CC[C@@H]([C@H](O)CC[C@@H](O)[C@@H]2CC[C@@H](CCCCCCCCCC3=C[C@@H](C)OC3=O)O2)O1 [Squamostatin-B] | 380 | 170 | 730 | 170 | 43 |
| CCCCCCCCCC[C@H](O)[C@H]1CC[C@H]([C@H]2CC[C@H]([C@H](O)CCCCCCCCCCCCC3=C[C@@H](C)OC3=O)O2)O1 [ISODESACETYLUVARICIN] | 13 | 84 | 21 | 16 | 160 |
| CCCCCC[C@@H](O)CCC[C@H](O)[C@@H]1CC[C@@H]([C@H](O)CC[C@@H](O)[C@@H]2CC[C@@H](CCCCCCCCCC3=C[C@@H](C)OC3=O)O2)O1 [Squamostatin-A] | 33 | 97 | 970 | 50 | 2.6 |
| CCCCCC[C@H](O)CCC[C@H](O)[C@H]1CC[C@H]([C@H]2CC[C@H]([C@H](O)CCCCCCCCCCCCC3=C[C@H](C)OC3=O)O2)O1 [SQUAMOCIN] | 9.7 | 0.73 | 0.5 | 0.09 | 0.87 |
| CCCCCC[C@@H](O)CCC[C@H](O)[C@@H]1CC[C@@H]([C@H](O)CC[C@@H](O)[C@@H]2CC[C@H](CCCCCCCCCC3=C[C@@H](C)OC3=O)O2)O1 | 1.3 | 93 | 3.3 | 60 | 16 |
| COc1cccc2c1C(=O)c1c(O)c3c(c(O)c1C2=O)C[C@@](O)(C(=O)CO)C[C@@H]3O[C@H]1C[C@H](N)[C@H](O)[C@H](C)O1 [DOXORUBICIN] | 16 | 13 |  | 3.7 | 26 |
| CCCCCCCCCCCC[C@@H](O)[C@H]1CC[C@H]([C@H](O)CCCCCC(O)CCCCCCC2=C[C@H](C)OC2=O)O1 (some centres undefined) | 1000 | 230 | 37 | 8.3 | 320 |
| CCCCCCCCCCC(O)C1CCC(C2CCC(C(O)CCCCCCCC[C@H](O)CC3=C[C@@H](C)OC3=O)O2)O1 (some centres undefined) [ASIMICIN] | 27 | 4.3 | 13 | 11 | 3.6 |
